Reference: PMC12040169 (PLOS Biology, 2025)

Test: in vitro
Settings: human, hela cells, % viability

In the case of `CS(=O)(=O)N1CCN(c2ccccc2NC(=O)COc2ccccc2Cl)CC1` [CBK269250], the viability at 28.5 h, 10 µM was 103%.
Work on `O=C(O)c1cccc(-n2c(S)nnc2-c2cnccn2)c1` [CBK269252] yielded a viability at 28.5 h, 10 µM of 104%.
In the case of `O=C(COc1ccc(S(=O)(=O)N2CCCCC2)cc1Cl)NCc1ccccn1` [CBK269253], the viability at 28.5 h, 10 µM was 89.6%.
`Cc1cc(S(=O)(=O)N2CCCCC2)ccc1OCC(=O)O` [CBK269254] gave a viability at 28.5 h, 10 µM of 80%.
For `O=C(O)CCN1CCN(S(=O)(=O)c2ccc3ccccc3c2)CC1` [CBK269255], the viability at 28.5 h, 10 µM was 88.4%.
`O=C(c1cccs1)N(Cc1ccco1)c1ccc(O)cc1` [CBK269256] showed a viability at 28.5 h, 10 µM of 88.9%.
For `Cn1c(=O)c2c(nc(CN3CCOCC3)n2CCc2ccccc2)n(C)c1=O` [CBK269264], the viability at 28.5 h, 10 µM was 89.3%.
In the case of `COc1ccccc1N1CCn2c1nc1c2c(=O)n(CCN2CCOCC2)c(=O)n1C` [CBK269265], the viability at 28.5 h, 10 µM was 93.4%.
With `Cc1ccc(S(=O)(=O)CCOc2nc3c(C(F)(F)F)cc(C4CC4)nc3o2)cc1` [CBK269267] the viability at 28.5 h, 10 µM was 111%.
`COC(=O)c1c(NC(=O)C(=O)NCc2ccco2)sc2c1CCCC2` [CBK269269] showed a viability at 28.5 h, 10 µM of 87.5%.
`CN1CCN(CC(=O)C(C#N)c2ccccc2)CC1` (centres unmarked) [CBK269270] gave a viability at 28.5 h, 10 µM of 87.7%.
Compound `COc1ccc(-c2noc(CNC(=O)Cc3ccc(-c4ccccc4)cc3)n2)cc1` [CBK269272] has a viability at 28.5 h, 10 µM of 105%.
Compound `Cc1ccc2cc(CN(Cc3ccco3)C(=O)c3cccs3)c(O)nc2c1` [CBK269274] has a viability at 28.5 h, 10 µM of 105%.
For `COC(=O)c1ccccc1NC(=O)CC1Nc2ccccc2NC1=O` (centres unmarked) [CBK269276A], the viability at 28.5 h, 10 µM was 91.9%.
In the case of `c1ccc2c(c1)OCC(c1nn3cnnc3s1)O2` (centres unmarked) [CBK269277], the viability at 28.5 h, 10 µM was 111%.
For `Cn1c(=O)c2c(nc(CN3CCCCC3)n2CCCO)n(C)c1=O` [CBK269280], the viability at 28.5 h, 10 µM was 106%.
Compound `Cn1c(=O)c2c(nc(CN3CCCCC3)n2CCN2CCOCC2)n(C)c1=O` [CBK269281] has a viability at 28.5 h, 10 µM of 99.2%.
For `Cn1c(=O)[nH]c(=O)c2c1nc(Sc1ncccn1)n2CCCc1ccccc1` [CBK269282], the viability at 28.5 h, 10 µM was 86.3%.
`Cc1onc(-c2ccccc2Cl)c1C(=O)N(Cc1nc(-c2ccccc2)no1)C(C)C` [CBK269289] showed a viability at 28.5 h, 10 µM of 113%.
With `CCN1CCN(C(=S)c2ccc(OCC(N)=O)c(OC)c2)CC1` [CBK269293] the viability at 28.5 h, 10 µM was 86.1%.
For `COc1ccc2c(CCNC(=O)C(c3ccccc3)c3ccccc3)c[nH]c2c1` [CBK269294], the viability at 28.5 h, 10 µM was 81.3%.
With `CC(=O)Nc1cccc(C(=O)N(Cc2ccccc2)Cc2ccccc2)c1` [CBK269295] the viability at 28.5 h, 10 µM was 91.6%.
With `COc1ccc2[nH]cc(CCNC(=O)c3ccc(NC(C)=O)cc3)c2c1` [CBK269296] the viability at 28.5 h, 10 µM was 96.6%.
In the case of `Cc1ccc2cc(CN(Cc3ccco3)C(=O)C3CCCO3)c(O)nc2c1` (centres unmarked) [CBK269300], the viability at 28.5 h, 10 µM was 103%.
Work on `O=C(CC(C(=O)O)n1cncn1)c1ccc(Br)cc1` (centres unmarked) [CBK269305] yielded a viability at 28.5 h, 10 µM of 103%.
`CN1CCN(Cc2nc3c(c(=O)n(C)c(=O)n3C)n2Cc2ccc(Br)cc2)CC1` [CBK269310] showed a viability at 28.5 h, 10 µM of 87.9%.
Compound `Cc1c(C(=O)C2=C(O)C(=O)N(CCCN(C)C)C2c2cccnc2)cnn1-c1ccccc1` (centres unmarked) [CBK269312] has a viability at 28.5 h, 10 µM of 93.8%.
For `C=CCNS(=O)(=O)c1ccc(NC(=O)Nc2ccc(Cl)cc2)cc1` [CBK269315], the viability at 28.5 h, 10 µM was 101%.
In the case of `Fc1c(F)c(Oc2ccccc2Cl)c(F)c(F)c1/C=C/CN1CCOCC1` [CBK269318C], the viability at 28.5 h, 10 µM was 96.7%.
With `COc1ccc(OC)c(-n2c(S)nnc2Cn2c(-c3ccccn3)nc3ccccc32)c1` [CBK269320] the viability at 28.5 h, 10 µM was 93.5%.
In the case of `O=C(O)c1ccccc1SC1CC(=O)N(CCc2ccccc2)C1=O` (centres unmarked) [CBK269321], the viability at 28.5 h, 10 µM was 93.6%.
Compound `CC1CCCCN1Cc1nc2c(c(=O)n(C)c(=O)n2C)n1CCCc1ccccc1` (centres unmarked) [CBK269326] has a viability at 28.5 h, 10 µM of 97%.
In the case of `Cn1c(=O)n(CCN2CCOCC2)c(=O)c2c1nc1n2CCN1c1ccccc1` [CBK269328], the viability at 28.5 h, 10 µM was 95.1%.
In the case of `Cc1ccc2cc(CN(Cc3ccccc3)S(C)(=O)=O)c(O)nc2c1` [CBK269329], the viability at 28.5 h, 10 µM was 94.4%.
In the case of `Cc1ccc2nsnc2c1NC(=O)CN1CCCCC1` [CBK269330], the viability at 28.5 h, 10 µM was 110%.
